Strand notation (5' to 3'): a small letter for the sugar, then the base; units joined by * are phosphorothioate-linked, units joined directly phosphodiester-linked; [ ] holds rarer units or linkages, { } end groups; capitals alone tell only the bases. e = 2'-O-(2-methoxyethyl) (MOE); [5mC] = 5-methylcytosine; d = 2'-deoxy (DNA)

The data set relates to PCSK9 mRNA. In kind it is cell-based, human. The following applies: Hep3B cells, 100 nM, relative to untreated control cells; for % Inhib (PCSK9 mRNA): 0 = no reduction observed. Here is the method:
When cells reached appropriate confluency, they were treated with oligonucleotide using LIPOFECTIN® as described. […] Cells were treated and data were obtained in duplicate or triplicate. […] Cells were harvested 16-24 hours after oligonucleotide treatment.
Short antisense compounds targeted to a PCSK9 nucleic acid were tested for their effects on PCSK9 mRNA in vitro. The Isis No, gapmer motif and SEQ ID NO of each short antisense compound are shown again in Table 75. Cultured Hep3B cells were treated with 100 nM of short antisense compound. 5-10-5 MOE gapmers targeted to a PCSK9 nucleic acid were used as positive controls. After the treatment period, RNA was isolated from the cells and PCSK9 mRNA levels were measured by quantitative real-time PCR, as described herein. PCSK9 mRNA levels were adjusted according to total RNA content as measured by RIBOGREEN®. Results are presented in Table 75 as percent inhibition of PCSK9 (% Inhib), relative to untreated control cells.

On to “400297 (antisense eA*eT*dG*dG*dG*dG*d[5mC]*dA*dA*d[5mC]*dT*dT*e[5mC]*eA) [compound 400297]”, for which the “% Inhib (PCSK9 mRNA)” value is reported as 0%.

“400298 (antisense e[5mC]*eA*dT*dG*dG*dG*dG*d[5mC]*dA*dA*d[5mC]*dT*eT*e[5mC]) [compound 400298]”: the “% Inhib (PCSK9 mRNA)” value is 0%.

As for “400299 (antisense eA*e[5mC]*dA*dT*dG*dG*dG*dG*d[5mC]*dA*dA*d[5mC]*eT*eT) [compound 400299]”, the “% Inhib (PCSK9 mRNA)” value came to 0%.

Turning to “400300 (antisense eG*eG*dG*dA*dT*dG*d[5mC]*dT*d[5mC]*dT*dG*dG*eG*e[5mC]) [compound 400300]”, the “% Inhib (PCSK9 mRNA)” value came to 9%.

Turning to “400301 (antisense e[5mC]*eG*d[5mC]*dT*d[5mC]*d[5mC]*dA*dG*dG*dT*dT*d[5mC]*e[5mC]*eA) [compound 400301]”, the “% Inhibition Range (PCSK9 mRNA)” value is recorded as 20-30% and the “% Inhib (PCSK9 mRNA)” value is listed as 27%.

For “400302 (antisense eG*eA*dT*dA*d[5mC]*dA*d[5mC]*d[5mC]*dT*d[5mC]*d[5mC]*dA*e[5mC]*e[5mC]) [compound 400302]”, the “% Inhib (PCSK9 mRNA)” value is 0%.

With “400303 (antisense eA*eG*dA*dT*dA*d[5mC]*dA*d[5mC]*d[5mC]*dT*d[5mC]*d[5mC]*eA*e[5mC]) [compound 400303]”, the “% Inhib (PCSK9 mRNA)” value was found to be 0%.

With “400304 (antisense eG*eA*dG*dA*dT*dA*d[5mC]*dA*d[5mC]*d[5mC]*dT*d[5mC]*e[5mC]*eA) [compound 400304]”, the “% Inhibition Range (PCSK9 mRNA)” value is 10-20% and the “% Inhib (PCSK9 mRNA)” value is given as 11%.

On to “400305 (antisense eG*e[5mC]*d[5mC]*dT*dG*dT*d[5mC]*dT*dG*dT*dG*dG*eA*eA) [compound 400305]”, for which the “% Inhibition Range (PCSK9 mRNA)” value is listed as 30-40% and the “% Inhib (PCSK9 mRNA)” value was 38%.

Consider “400306 (antisense e[5mC]*eT*dG*dT*d[5mC]*dA*d[5mC]*dA*d[5mC]*dT*dT*dG*e[5mC]*eT) [compound 400306]”, for which the “% Inhibition Range (PCSK9 mRNA)” value is 40-50% and the “% Inhib (PCSK9 mRNA)” value was found to be 40%.

With “400310 (eT*e[5mC]*d[5mC]*d[5mC]*dG*dG*d[5mC]*d[5mC]*dG*d[5mC]*dT*dG*eA*e[5mC]; antisense) [compound 400310]”, the “% Inhib (PCSK9 mRNA)” value was 8%.

Turning to “400311 (eA*eT*d[5mC]*d[5mC]*d[5mC]*dG*dG*d[5mC]*d[5mC]*dG*d[5mC]*dT*eG*eA; antisense) [compound 400311]”, the “% Inhibition Range (PCSK9 mRNA)” value was 10-20% and the “% Inhib (PCSK9 mRNA)” value came out at 18%.

On to “400312 (e[5mC]*eA*dT*d[5mC]*d[5mC]*d[5mC]*dG*dG*d[5mC]*d[5mC]*dG*d[5mC]*eT*eG; antisense) [compound 400312]”, for which the “% Inhibition Range (PCSK9 mRNA)” value is 20-30% and the “% Inhib (PCSK9 mRNA)” value was found to be 28%.

Regarding “400313 (eG*e[5mC]*dA*dT*d[5mC]*d[5mC]*d[5mC]*dG*dG*d[5mC]*d[5mC]*dG*e[5mC]*eT; antisense) [compound 400313]”, the “% Inhibition Range (PCSK9 mRNA)” value is listed as 10-20% and the “% Inhib (PCSK9 mRNA)” value is 10%.

Take “400314 (eG*eT*dG*d[5mC]*d[5mC]*d[5mC]*dT*dT*d[5mC]*d[5mC]*d[5mC]*dT*eT*eG; antisense) [compound 400314]”: the “% Inhibition Range (PCSK9 mRNA)” value is recorded as 20-30% and the “% Inhib (PCSK9 mRNA)” value worked out at 26%.

On to “400315 (eA*eT*dG*dA*dG*dG*dG*dT*dG*d[5mC]*d[5mC]*dG*e[5mC]*eT; antisense) [compound 400315]”, for which the “% Inhib (PCSK9 mRNA)” value was found to be 0%.

Turning to “400316 (eT*eA*dT*dG*dA*dG*dG*dG*dT*dG*d[5mC]*d[5mC]*eG*e[5mC]; antisense) [compound 400316]”, the “% Inhib (PCSK9 mRNA)” value turned out to be 8%.

As to “400317 (e[5mC]*eT*dA*dT*dG*dA*dG*dG*dG*dT*dG*d[5mC]*e[5mC]*eG; antisense) [compound 400317]”, the “% Inhib (PCSK9 mRNA)” value was found to be 7%.

Values taken from patent publication US8188059B2, “Compounds and methods for modulating expression of GCGR” (Isis Pharmaceuticals, Inc., priority 2006, dated 2012).
